Data: US20240132431A1, “METHOD FOR ALKYLATING ACIDIC FUNCTIONAL GROUP” (Chugai Seiyaku Kabushiki Kaisha, priority 2021, published 2024)
Like-named read-outs stand apart in the source and are kept apart here.

How the values were obtained:
[1] = target: T1, Bcl-2 protein (Recombinant Human Bcl-2 Protein) (Homo sapiens, UniProt P10415); assay: Binding evaluation of mixture library compounds to Bcl-2 using AS-MS (affinity selection mass spectrometry); details: for ASMS ratio (%) n = 1 / ASMS ratio (%) n = 2: AS-MS, mixture library, Bcl-2, ASMS Ratio(%)=(A−C)/B×100; for ASMS ratio (%) n = 1: replicate n = 1; for ASMS ratio (%) n = 2: replicate n = 2
T1 construct: purchased Novus NBP2-34889
Procedure, shortened: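 ASMS Ratio (%) was calculated as (A−C)/B×100, where A is the protein sample after SEC, B the protein-free sample without SEC and C the protein-free sample after SEC. Each compound was at […] in a 1200-member pool with 20 μM Bcl-2, incubated 1 h at 23° C.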

human Bcl-2 protein = target: T2, human Bcl-2 protein (Homo sapiens, UniProt P10415); assay: Binding evaluation of compounds to Bcl-2 by surface plasmon resonance (SPR); details: for equilibrium dissociation constant KD compared to compound B2Q045-01: binding to Bcl-2
T2 construct: purchased Novus Biologicals
Procedure: In order to analyze the binding affinity of the compounds shown in [Table AK-O1] and synthesized in Example 8 to Bcl-2, the surface plasmon resonance method was used. Biacore T200 (GE Healthcare) was used as the apparatus, and HBS (10 mM HEPES-NaOH, 150 mM NaCl, pH 7.4) to which 1 mM DTT, 3 mM EDTA, 0.01% Tween 20, and 4% DMSO had been added was used as the running buffer. The human Bcl-2 protein (Novus Biologicals) was biotinylated using EZ-Link Sulfo-NHS-LC-LC-biotin (Thermofisher scientific) and immobilized on the surface of Sensor Chip SA (GE Healthcare). Thereafter, compound solutions of multiple concentrations and the running buffer (blank) were added to the Bcl-2 immobilized surface to obtain the binding response of the compounds. The measurement was carried out at 15° C.

[2] = first value in parentheses, (A−C)/B×100, 1200-compound mixture, Bcl-2 20 μM
[3] = second value in parentheses, (A−C)/B×100, 1200-compound mixture, Bcl-2 20 μM
[4] = Biacore T200, biotinylated human Bcl-2 immobilized on Sensor Chip SA, 15° C., compounds found by AS-MS evaluation of synthesized library, read-out: Equilibrium dissociation constant KD
[5] = Biacore T200, biotinylated human Bcl-2 immobilized on Sensor Chip SA, 15° C., compounds found by AS-MS evaluation of synthesized library
[6] = Biacore T200, 15° C., compounds synthesized before performing library synthesis
[7] = binding to Bcl-2, compounds evaluated before library synthesis, read-out: KD

T2 sequence (P10415 whole entry): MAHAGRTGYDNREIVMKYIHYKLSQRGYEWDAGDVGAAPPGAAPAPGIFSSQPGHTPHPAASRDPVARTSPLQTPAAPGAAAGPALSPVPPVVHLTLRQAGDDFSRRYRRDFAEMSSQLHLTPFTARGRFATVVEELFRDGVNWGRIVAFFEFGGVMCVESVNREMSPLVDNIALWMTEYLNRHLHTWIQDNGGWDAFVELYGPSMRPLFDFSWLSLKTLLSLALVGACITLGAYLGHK
T1 sequence (P10415 whole entry): as above

Structure (SMILES)	ASMS ratio (%) n = 1 [1] [%]	ASMS ratio (%) n = 2 [1] [%]	ASMS ratio (%) [1, 2] [%]	ASMS ratio (%) [1, 3] [%]	Kd (human Bcl-2 protein; [4]) [nM]	equilibrium dissociation constant KD compared to compound B2Q045-01 (human Bcl-2 protein)	Equilibrium dissociation constant KD (human Bcl-2 protein; [5])	ASMS ratio (%) ([1]; n = 1)	ASMS ratio (%) ([1]; n = 2)	Equilibrium dissociation constant KD (human Bcl-2 protein; [6])	Kd (human Bcl-2 protein; [7]) [nM]
CCOc1cccc(-c2ccc(CN3CCN(c4ccc(C(=O)NS(=O)(=O)c5ccc(NCCSc6ccccc6)c([N+](=O)[O-])c5)cc4)CC3)cc2C)c1 [B2Q047-01, 4-[4-[[4-(3-ethoxyphenyl)-3-methylphenyl]methyl]piperazin-1-yl]-N-[3-nitro-4-(2-phenylsulfanylethylamino)phenyl]sulfonylbenzamide]	142.5	326.4	142.5	326.4	700	smaller equilibrium dissociation constants KD					
CCOc1cncc(-c2ccc(CN3CCN(c4ccc(C(=O)NS(=O)(=O)c5ccc(NCCSc6ccccc6)c([N+](=O)[O-])c5)cc4)CC3)cc2C)c1 [B2Q048-01, 4-[4-[[4-(5-ethoxypyridin-3-yl)-3-methylphenyl]methyl]piperazin-1-yl]-N-[3-nitro-4-(2-phenylsulfanylethylamino)phenyl]sulfonylbenzamide]	61.6	90.8	61.6	90.8	480	smaller equilibrium dissociation constants KD					
CCOc1cccc(-c2ccc(CN3CCN(c4ccc(C(=O)NS(=O)(=O)c5ccc(NCCSc6ccccc6)c([N+](=O)[O-])c5)cc4)CC3)c(OC)c2)c1 [B2Q053-01, 4-[4-[[4-(3-ethoxyphenyl)-2-methoxyphenyl]methyl]piperazin-1-yl]-N-[3-nitro-4-(2-phenylsulfanylethylamino)phenyl]sulfonylbenzamide]	22.4	15.5	22.4	15.5			Binding not observed				
CCOc1cncc(-c2ccc(CN3CCN(c4ccc(C(=O)NS(=O)(=O)c5ccc(NCCSc6ccccc6)c([N+](=O)[O-])c5)cc4)CC3)c(OC)c2)c1 [B2Q054-01, 4-[4-[[4-(5-ethoxypyridin-3-yl)-2-methoxyphenyl]methyl]piperazin-1-yl]-N-[3-nitro-4-(2-phenylsulfanylethylamino)phenyl]sulfonylbenzamide]	44.1	65.0	44.1	65.0	1270						
CCOc1cncc(-c2ccc(CN3CCN(c4ccc(C(=O)NS(=O)(=O)c5ccc(NCCSc6ccccc6)c([N+](=O)[O-])c5)cc4)CC3)c3ccccc23)c1 [B2Q066-01, 4-[4-[[4-(5-ethoxypyridin-3-yl)naphthalen-1-yl]methyl]piperazin-1-yl]-N-[3-nitro-4-(2-phenylsulfanylethylamino)phenyl]sulfonylbenzamide]	40.7	36.9	40.7	36.9	950						
CCOc1cccc(-c2ccc(C(C)N3CCN(c4ccc(C(=O)NS(=O)(=O)c5ccc(NCCSc6ccccc6)c([N+](=O)[O-])c5)cc4)CC3)cc2)c1 (stereo not drawn) [B2Q097-01, 4-[4-[1-[4-(3-ethoxyphenyl)phenyl]ethyl]piperazin-1-yl]-N-[3-nitro-4-(2-phenylsulfanylethylamino)phenyl]sulfonylbenzamide]	142.5	326.4	142.5	326.4			Binding not observed				
CCOc1cncc(-c2ccc(C(C)N3CCN(c4ccc(C(=O)NS(=O)(=O)c5ccc(NCCSc6ccccc6)c([N+](=O)[O-])c5)cc4)CC3)cc2)c1 (stereo not drawn) [B2Q098-01, 4-[4-[1-[4-(5-ethoxypyridin-3-yl)phenyl]ethyl]piperazin-1-yl]-N-[3-nitro-4-(2-phenylsulfanylethylamino)phenyl]sulfonylbenzamide]	61.6	90.8	61.6	90.8			Binding not observed				
CCOc1cccc(-c2ccccc2CN2CCN(c3ccc(C(=O)NS(=O)(=O)c4ccc(NCCSc5ccccc5)c(C(F)(F)F)c4)cc3)CC2)c1 [B2R045-01, 4-[4-[[2-(3-ethoxyphenyl)phenyl]methyl]piperazin-1-yl]-N-[4-(2-phenylsulfanylethylamino)-3-(trifluoromethyl)phenyl]sulfonylbenzamide]								4.8	−3.4	Bound	> 20000
CCOc1cncc(-c2ccccc2CN2CCN(c3ccc(C(=O)NS(=O)(=O)c4ccc(NCCSc5ccccc5)c(C(F)(F)F)c4)cc3)CC2)c1 [B2R046-01, 4-[4-[[2-(5-Ethoxypyridin-3-yl)phenyl]methyl]piperazin-1-yl]-N-[4-(2-phenylsulfanylethylamino)-3-(trifluoromethyl)phenyl]sulfonylbenzamide]								−0.2	0.0	Bound	> 20000
